# Read-outs that look alike come from different tables or passages of the source.
# Biological target: cellular cereblon (CRBN) (Homo sapiens, UniProt Q96SW2)
# Test: NanoBRET Target Engagement Assay, competition with pomalidomide tracer in 293T.116 cells
# Settings: for NanoBRET TE 293T.116 CRBN 2 hours IP nM / NanoBRET TE 293T.116 CRBN 6 hours IP nM / NanoBRET TE 293T.116 CRBN 24 hours IP nM / IC50: 293T.116 cells
# [1] = NanoBRET TE 293T.116 CRBN 2 hours IC50 nM, 2 hours incubation
# [2] = NanoBRET TE 293T.116 CRBN 6 hours IC50 nM, 6 hours incubation
# [3] = NanoBRET TE 293T.116 CRBN 24 hours IC50 nM, 24 hours incubation
# [4] = read-out: NanoBRET TE 293T.116 CRBN 2 hours Emax
# [5] = read-out: NanoBRET TE 293T.116 CRBN 6 hours Emax
# [6] = read-out: NanoBRET TE 293T.116 CRBN 24 hours Emax
structure (smiles),measurement,setting,value
"O=C1CCC(c2ccc(S(=O)(=O)F)cc2)C(=O)N1 (stereo not drawn) [Compound A-12, 4-(2,6-dioxopiperidin-3-yl)benzenesulfonyl fluoride]",NanoBRET TE 293T.116 CRBN 2 hours IP nM,2 hours incubation,*** (<= 1 μM is ***)
same,NanoBRET TE 293T.116 CRBN 6 hours IP nM,6 hours incubation,*** (<= 1 μM is ***)
same,NanoBRET TE 293T.116 CRBN 24 hours IP nM,24 hours incubation,*** (<= 1 μM is ***)
same,IC50,[1],< 1000 nM
same,IC50,[2],< 1000 nM
same,IC50,[3],1000 to 10000 nM
same,Emax,[4],< 50%
same,Emax,[5],< 50%
same,Emax,[6],< 50%
"O=C1CCC(Nc2ccc(C3CCNCC3)c(OS(=O)(=O)F)c2)C(=O)N1 (stereo not drawn) [Compound A-31, 5-((2,6-dioxopiperidin-3-yl)amino)-2-(piperidin-4-yl)phenyl sulfurofluoridate]",NanoBRET TE 293T.116 CRBN 2 hours IP nM,2 hours incubation,*** (<= 1 μM is ***)
same,NanoBRET TE 293T.116 CRBN 6 hours IP nM,6 hours incubation,*** (<= 1 μM is ***)
same,NanoBRET TE 293T.116 CRBN 24 hours IP nM,24 hours incubation,*** (<= 1 μM is ***)
same,IC50,[1],< 1000 nM
same,IC50,[2],< 1000 nM
same,IC50,[3],< 1000 nM
same,Emax,[4],< 50%
same,Emax,[5],< 50%
same,Emax,[6],< 50%
"O=C1CCN(c2ccc(S(=O)(=O)F)cc2)C(=O)N1 [Compound A-14, 4-(2,4-dioxotetrahydropyrimidin-1(2H)-yl)benzenesulfonyl fluoride]",NanoBRET TE 293T.116 CRBN 2 hours IP nM,2 hours incubation,** (<10 μM and >1 μM is **)
same,NanoBRET TE 293T.116 CRBN 6 hours IP nM,6 hours incubation,** (<10 μM and >1 μM is **)
same,NanoBRET TE 293T.116 CRBN 24 hours IP nM,24 hours incubation,** (<10 μM and >1 μM is **)
same,IC50,[1],1000 to 10000 nM
same,IC50,[2],1000 to 10000 nM
same,IC50,[3],> 10000 nM
same,Emax,[4],< 50%
same,Emax,[5],< 50%
same,Emax,[6],50 to 80%
"CN(c1cccc(S(=O)(=O)F)c1)C1CCC(=O)NC1=O (stereo not drawn) [Compound A-11, 3-((2,6-dioxopiperidin-3-yl)(methyl)amino)benzenesulfonyl fluoride]",NanoBRET TE 293T.116 CRBN 2 hours IP nM,2 hours incubation,*** (<= 1 μM is ***)
same,NanoBRET TE 293T.116 CRBN 6 hours IP nM,6 hours incubation,*** (<= 1 μM is ***)
same,NanoBRET TE 293T.116 CRBN 24 hours IP nM,24 hours incubation,*** (<= 1 μM is ***)
same,IC50,[1],< 1000 nM
same,IC50,[2],< 1000 nM
same,IC50,[3],< 1000 nM
same,Emax,[4],< 50%
same,Emax,[5],< 50%
same,Emax,[6],< 50%
"Cc1ccc(OC2CCC(=O)NC2=O)cc1OS(=O)(=O)F (stereo not drawn) [Compound A-19, 5-((2,6-dioxopiperidin-3-yl)oxy)-2-methylphenyl sulfurofluoridate]",NanoBRET TE 293T.116 CRBN 2 hours IP nM,2 hours incubation,** (<10 μM and >1 μM is **)
same,NanoBRET TE 293T.116 CRBN 6 hours IP nM,6 hours incubation,** (<10 μM and >1 μM is **)
same,NanoBRET TE 293T.116 CRBN 24 hours IP nM,24 hours incubation,** (<10 μM and >1 μM is **)
same,IC50,[1],1000 to 10000 nM
same,IC50,[2],1000 to 10000 nM
same,IC50,[3],1000 to 10000 nM
same,Emax,[4],< 50%
same,Emax,[5],< 50%
same,Emax,[6],< 50%
"Cc1cc(OC2CCC(=O)NC2=O)cc(OS(=O)(=O)F)c1 (stereo not drawn) [Compound A-20, 3-((2,6-dioxopiperidin-3-yl)oxy)-5-methylphenyl sulfurofluoridate]",NanoBRET TE 293T.116 CRBN 6 hours IP nM,6 hours incubation,*** (<= 1 μM is ***)
same,NanoBRET TE 293T.116 CRBN 24 hours IP nM,24 hours incubation,*** (<= 1 μM is ***)
same,IC50,[2],< 1000 nM
same,IC50,[3],1000 to 10000 nM
same,Emax,[5],< 50%
same,Emax,[6],< 50%
"O=C1CCC(Oc2ccc(C3CCNCC3)c(S(=O)(=O)F)c2)C(=O)N1 (stereo not drawn) [Compound A-38, 5-((2,6-dioxopiperidin-3-yl)oxy)-2-(piperidin-4-yl)benzenesulfonyl fluoride]",NanoBRET TE 293T.116 CRBN 2 hours IP nM,2 hours incubation,*** (<= 1 μM is ***)
same,NanoBRET TE 293T.116 CRBN 6 hours IP nM,6 hours incubation,*** (<= 1 μM is ***)
same,NanoBRET TE 293T.116 CRBN 24 hours IP nM,24 hours incubation,*** (<= 1 μM is ***)
same,IC50,[1],< 1000 nM
same,IC50,[2],< 1000 nM
same,IC50,[3],< 1000 nM
same,Emax,[4],< 50%
same,Emax,[5],< 50%
same,Emax,[6],< 50%
O=C1CCN(c2ccc(N3CCNCC3)c(OS(=O)(=O)F)c2)C(=O)N1 [drawing 1166],NanoBRET TE 293T.116 CRBN 24 hours IP nM,24 hours incubation,** (<10 μM and >1 μM is **)
same,IC50,[3],1000 to 10000 nM
same,Emax,[6],< 50%
"O=C1CCC(n2c(=O)oc3c(S(=O)(=O)F)cccc32)C(=O)N1 (stereo not drawn) [Compound A-29, 3-(2,6-dioxopiperidin-3-yl)-2-oxo-2,3-dihydrobenzo[d]oxazole-7-sulfonyl fluoride]",NanoBRET TE 293T.116 CRBN 6 hours IP nM,6 hours incubation,*** (<= 1 μM is ***)
same,NanoBRET TE 293T.116 CRBN 24 hours IP nM,24 hours incubation,** (<10 μM and >1 μM is **)
same,IC50,[2],< 1000 nM
same,IC50,[3],1000 to 10000 nM
same,Emax,[5],< 50%
same,Emax,[6],< 50%
"COc1ccc(OC2CCC(=O)NC2=O)cc1OS(=O)(=O)F (stereo not drawn) [Compound A-27, 5-((2,6-dioxopiperidin-3-yl)oxy)-2-methoxyphenyl sulfurofluoridate]",NanoBRET TE 293T.116 CRBN 2 hours IP nM,2 hours incubation,** (<10 μM and >1 μM is **)
same,NanoBRET TE 293T.116 CRBN 6 hours IP nM,6 hours incubation,** (<10 μM and >1 μM is **)
same,NanoBRET TE 293T.116 CRBN 24 hours IP nM,24 hours incubation,** (<10 μM and >1 μM is **)
same,IC50,[1],1000 to 10000 nM
same,IC50,[2],1000 to 10000 nM
same,IC50,[3],> 10000 nM
same,Emax,[4],< 50%
same,Emax,[5],< 50%
same,Emax,[6],50 to 80%
"COc1ccc(OC2CCC(=O)NC2=O)cc1S(=O)(=O)F (stereo not drawn) [Compound A-16, 5-[(2,6-dioxo-3-piperidyl)oxy]-2-methoxy-benzenesulfonyl fluoride]",NanoBRET TE 293T.116 CRBN 2 hours IP nM,2 hours incubation,*** (<= 1 μM is ***)
same,NanoBRET TE 293T.116 CRBN 6 hours IP nM,6 hours incubation,*** (<= 1 μM is ***)
same,NanoBRET TE 293T.116 CRBN 24 hours IP nM,24 hours incubation,*** (<= 1 μM is ***)
same,IC50,[1],< 1000 nM
same,IC50,[2],< 1000 nM
same,IC50,[3],< 1000 nM
same,Emax,[4],< 50%
same,Emax,[5],< 50%
same,Emax,[6],< 50%
"O=C1NC(=O)C2(c3ccc(S(=O)(=O)F)cc3)CC1C2 [Compound A-34, 4-(2,4-dioxo-3-azabicyclo[3.1.1]heptan-1-yl)benzenesulfonyl fluoride]",NanoBRET TE 293T.116 CRBN 2 hours IP nM,2 hours incubation,** (<10 μM and >1 μM is **)
same,NanoBRET TE 293T.116 CRBN 6 hours IP nM,6 hours incubation,** (<10 μM and >1 μM is **)
same,NanoBRET TE 293T.116 CRBN 24 hours IP nM,24 hours incubation,* (>=10 μM is *)
same,IC50,[1],1000 to 10000 nM
same,IC50,[2],1000 to 10000 nM
same,IC50,[3],> 10000 nM
same,Emax,[4],< 50%
same,Emax,[5],< 50%
same,Emax,[6],> 80%
"O=C1CCN(c2ccc(N3CCNCC3)c(OS(=O)(=O)F)c2)C(=O)N1 [Compound A-39, 5-(2,4-dioxotetrahydropyrimidin-1(2H)-yl)-2-(piperazin-1-yl)phenyl sulfurofluoridate]",NanoBRET TE 293T.116 CRBN 2 hours IP nM,2 hours incubation,* (>=10 μM is *)
same,IC50,[1],> 10000 nM
same,Emax,[4],50 to 80%
"Cn1nc(N2CCC(=O)NC2=O)c2cccc(OS(=O)(=O)F)c21 [Compound A-30, 3-(2,4-dioxotetrahydropyrimidin-1(2H)-yl)-1-methyl-1H-indazol-7-yl sulfurofluoridate]",NanoBRET TE 293T.116 CRBN 2 hours IP nM,2 hours incubation,** (<10 μM and >1 μM is **)
same,NanoBRET TE 293T.116 CRBN 6 hours IP nM,6 hours incubation,*** (<= 1 μM is ***)
same,NanoBRET TE 293T.116 CRBN 24 hours IP nM,24 hours incubation,** (<10 μM and >1 μM is **)
same,IC50,[1],1000 to 10000 nM
same,IC50,[2],< 1000 nM
same,IC50,[3],1000 to 10000 nM
same,Emax,[4],< 50%
same,Emax,[5],< 50%
same,Emax,[6],< 50%
"O=C1CCC(c2ccc(N3CCNCC3)c(OS(=O)(=O)F)c2)C(=O)N1 (stereo not drawn) [Compound A-36, 5-(2,6-dioxopiperidin-3-yl)-2-(piperazin-1-yl)phenyl sulfurofluoridate]",NanoBRET TE 293T.116 CRBN 2 hours IP nM,2 hours incubation,*** (<= 1 μM is ***)
same,NanoBRET TE 293T.116 CRBN 6 hours IP nM,6 hours incubation,*** (<= 1 μM is ***)
same,NanoBRET TE 293T.116 CRBN 24 hours IP nM,24 hours incubation,*** (<= 1 μM is ***)
same,IC50,[1],< 1000 nM
same,IC50,[2],< 1000 nM
same,IC50,[3],< 1000 nM
same,Emax,[4],< 50%
same,Emax,[5],< 50%
same,Emax,[6],< 50%
"O=C1CCC(CNc2cccc(OS(=O)(=O)F)c2)C(=O)N1 (stereo not drawn) [Compound A-40, 3-(((2,6-dioxopiperidin-3-yl)methyl)amino)phenyl sulfurofluoridate]",NanoBRET TE 293T.116 CRBN 2 hours IP nM,2 hours incubation,* (>=10 μM is *)
same,NanoBRET TE 293T.116 CRBN 6 hours IP nM,6 hours incubation,* (>=10 μM is *)
same,NanoBRET TE 293T.116 CRBN 24 hours IP nM,24 hours incubation,** (<10 μM and >1 μM is **)
same,IC50,[1],> 10000 nM
same,IC50,[2],1000 to 10000 nM
same,IC50,[3],1000 to 10000 nM
same,Emax,[4],50 to 80%
same,Emax,[5],< 50%
same,Emax,[6],< 50%

# Reference: patent publication US20260274856A1, “COVALENT CEREBLON LIGANDS” (C4 THERAPEUTICS, INC., priority 2023, published 2026)
